Data set [1] concerns mouse acetic acid writhing model. The data set is described as follows: mouse acetic acid writhing model (nociceptive pain). The following applies: Mus musculus; male ddY mice; oral administration 45 min before 0.6% acetic acid i.p.; dose suppressing 50% of writhing responses vs vehicle group; vehicle A or B; read-out: ED50. Type of data set: in vivo. On the technique in general: Writhing tests count abdominal constrictions after an irritant is injected.

The nature of data set [2]: human liver microsomal stability assay. Type of data set: in vitro ADME. The note with it: liver microsomes, pH 7.4, human liver microsomes 0.5 mg/mL, test compound 2 μmol/L, 37° C., 0-30 min, read-out: Human hepatic intrinsic clearance. How it is done: A liver microsomal stability assay, which is known to be an in vitro assay for evaluation of the stability of a compound against hepatic metabolism, was carried out to evaluate the stability of Compound (I) against human and mouse hepatic metabolism.
A total of 4 times of experiments were carried out for the combinations of the compound of Example 2-B or the compound of Comparative Example 29 as the test compound and human liver microsomes (Xenotech) or mouse liver microsomes (Xenotech) as the liver microsomes.
The respective reagents to be used for the liver microsomal stability assay were prepared as follows. That is, an appropriate amount of D-glucose 6-phosphate disodium salt (hereinafter referred to as G6P) was dissolved in distilled water at 100 mmol/L, to prepare 100 mmol/L aqueous G6P solution. In 5 mL of distilled water, 1000 units of Glucose 6-phosphate dehydrogenase from Yeast (hereinafter referred to as G6PDH) was dissolved, to prepare 200 units/mL aqueous G6PDH solution. An appropriate amount of MgCl2 was dissolved in distilled water at 100 mmol/L, to prepare 100 mmol/L aqueous MgCl2 solution. To 500 mL of 200 mmol/L aqueous K2HPO4 solution, 200 mmol/L aqueous KH2PO4 solution (about 130 mL) was added, and pH was adjusted to 7.4, to prepare 200 mmol/L KH2PO4/K2HPO4 buffer pH7.4 (hereinafter referred to as 200 mmol/L PB). β-nicotinamide-adenine dinucleotide phosphate, reduced form, tetrasodium salt (hereinafter referred to as (NADPH) was dissolved in distilled water such that the NADPH content becomes 10 mmol/L based on the purity (Purity NADPH) in the assay data described in the attached document, to prepare 10 mmol/L aqueous NADPH solution.
The liver microsomal stability assay was carried out according to the following procedure. First, the reagents listed in Table 12 (excluding microsomes) were mixed together to prepare a reaction mixture, and the reaction mixture was aliquoted in 130 μL volumes to 4 wells (which play roles as the wells for the 0-minute reaction, well for the 30-minute reaction, well for the 20-minute reaction and well for the 10-minute reaction, respectively) in a 96-well tube plate (BM Equipment Co., Ltd; hereinafter referred to as plate). The entire plate was covered with a silicone cap, and the plate was subjected to preincubation by being soaked in a water bath at 37° C. for 10 minutes.
After the preincubation, 3.75 μL of 20 mg/mL microsome suspension+16.25 μL of distilled water (20 μL in total) were added to the well for the 30-minute reaction, and the plate was covered with the cap, followed by soaking the plate in a water bath at 37° C. to initiate the reaction.
Ten minutes after the beginning of the reaction, 3.75 μL of 20 mg/mL microsome suspension+16.25 μL of distilled water (20 μL in total) were added to the well for the 20-minute reaction, and 20 minutes after the beginning of the reaction, 3.75 μL of 20 mg/mL microsome suspension+16.25 μL of distilled water (20 μL in total) were added to the well for the 10-minute reaction. The reaction was further continued by keeping the plate soaked in the water bath at 37° C.
Thirty minutes after the beginning of the reaction, the plate was removed from the water bath, and 120 μL of acetonitrile was added to each well, followed by covering the plate with the cap, stirring the plate for 10 seconds with Direct Mixer, and stopping the reaction by 10 minutes of ice cooling. After the reaction was stopped, 3.75 μL of 20 mg/mL microsome suspension+16.25 μL of distilled water (20 μL in total) were added to the well for the 0-minute reaction.
The reaction liquid in each well was centrifuged at 4° C. at 2500 rpm for 10 minutes, and the supernatant was transferred to a glass-coated microplate (TOMSIC Plate+) to begin LC/MS/MS analysis. The conditions for the LC/MS/MS analysis were as follows: […]
A general note: Liver microsomes are a subcellular fraction often used to study metabolism.

Data set [3] has as its system mouse sciatic nerve-ligation model (Seltzer model). The data set is described as follows: mouse partial sciatic nerve ligation model (Seltzer model), von Frey test. The note with it: for von Frey total score compared to the vehicle group: 1 hour after oral administration, doses as in Table 11; for Score improvement rate: 1 hour after administration; for von Frey Total Score Observed 1 Hour after Oral Administration (mean ± standard error), Compound-administered group: n = 5 to 6.

Broadly, the ED50 is the dose at which the effect has come halfway, by size or by number of responders.

With `COc1ccc(-n2nc(C3(O)CCC(O)CC3)cc2-c2ccc(C)cc2)cc1` (stereo not drawn) [Example 2-A, 1-(1-(4-Methoxyphenyl)-5-(p-tolyl)-1H-pyrazol-3-yl)cyclohexan-trans-1,4-diol], in data set [1], the median effective dose (ED50) was 1.8 mg/kg. The microsomal CLint at 2 μmol/L in data set [2] was determined as 45.1 µL/min/mg. Further, the “analgesic effect 3 hours after the oral administration (von Frey test)” value in data set [3] (oral administration of 0.3 mg/kg, FIG. 1) is reported as “a strong analgesic effect was maintained”.
With `COc1ccc(-n2nc(C3(O)CCC(O)CC3)c(Cl)c2-c2ccc(C)cc2)cc1` (stereo not drawn) [Example 59, 1-(4-Chloro-1-(4-methoxyphenyl)-5-(p-tolyl)-1H-pyrazol-3-yl)cyclohexan-cis-1,4-diol], the ED50 in data set [1] was determined as 9.92 mg/kg. Moreover, in data set [2], the microsomal CLint at 2 μmol/L amounted to 44.6 µL/min/mg. Further, in data set [3], the “von Frey total score compared to the vehicle group” value is recorded as “significantly improved”. This compound also yielded a Score improvement rate in data set [3] (dose 10 mg/kg oral, vehicle A) of 66%. Moreover, in data set [3] (dose 10 mg/kg oral, […]), the “von Frey Total Score Observed 1 Hour after Oral Administration (mean ± standard error), Compound-administered group” value is 1.7 ± 0.6.
Take `COc1ccc(-n2nc(C3(O)CCC(O)(C(F)(F)F)CC3)cc2-c2ccc(C)cc2)cc1` (stereo not drawn) [Example 62, 1-(1-(4-Methoxyphenyl)-5-(p-tolyl)-1H-pyrazol-3-yl)-4-(trifluoromethyl)cyclohexan-cis-1,4-diol]: the ED50 in data set [1] worked out at 0.54 mg/kg. Moreover, in data set [2], the microsomal CLint at 2 μmol/L was determined as 33.3 µL/min/mg. Besides, the “analgesic effect 3 hours after the oral administration (von Frey test)” value in data set [3] (oral administration of Example 2-B and Example 62 in amounts of 0.3 and 1.0 mg/kg, respectively, FIG. 2, FIG. 3) is reported as “a strong analgesic effect was maintained”.
On to `COc1ccc(-n2nc(C3(O)CCC(C(=O)O)CC3)cc2-c2ccc(C)cc2)cc1` (stereo not drawn) [Example 64, 4-hydroxy-4-(1-(4-methoxyphenyl)-5-p-tolyl-1H-pyrazol-3-yl)-cis-cyclohexanecarboxylic acid], for which the ED50 in data set [1] was found to be 1.19 mg/kg. Also, in data set [2], the microsomal CLint at 2 μmol/L stood at 2.06 µL/min/mg. Further, the “von Frey total score compared to the vehicle group” value in data set [3] is given as “significantly improved”. This compound showed a Score improvement rate in data set [3] (dose 1 mg/kg oral, vehicle C) of 57%. In addition, in data set [3] (dose 1 mg/kg oral, vehicle C (0.5% methyl cellulose, suspension)), the “von Frey Total Score Observed 1 Hour after Oral Administration (mean ± standard error), Compound-administered group” value worked out at 2.3 ± 0.5.

Source of the values: patent US8247569B2, “Cyclohexane derivative and pharmaceutical use thereof” (Toray Industries, Inc., priority 2008, dated 2012).
